Measurements: paper PMC4050187 (FEBS Open Bio, 2014)

Target: T1, Cj0511His (Campylobacter jejuni, UniProt Q0PB04)
T1 sequence (Q0PB04 36-444): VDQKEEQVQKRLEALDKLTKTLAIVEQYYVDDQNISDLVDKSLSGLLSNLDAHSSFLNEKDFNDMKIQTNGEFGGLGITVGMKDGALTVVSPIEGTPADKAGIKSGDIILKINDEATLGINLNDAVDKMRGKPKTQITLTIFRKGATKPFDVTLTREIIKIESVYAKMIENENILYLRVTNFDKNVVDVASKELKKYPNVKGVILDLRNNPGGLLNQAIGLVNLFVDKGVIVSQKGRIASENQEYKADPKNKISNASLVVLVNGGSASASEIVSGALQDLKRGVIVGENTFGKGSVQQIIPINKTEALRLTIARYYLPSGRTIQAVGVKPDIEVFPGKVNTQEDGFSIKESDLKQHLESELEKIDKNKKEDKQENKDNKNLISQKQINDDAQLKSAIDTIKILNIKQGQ
Assay: colorimetric protease screening kit, absorbance at […] nm
Type: biochemical
Conditions: 1 mM inhibitor, 37 °C, 3 h, 0.25 μg protein in 50 μl

## NCCc1ccc(S(=O)(=O)F)cc1 [AEBSF]
  reduction in activity at 1 mM: reduction in activity in the presence of antipain, aprotin, AEBSF and PMSF inhibitors
